# Measurements from US20170042890A1, “METHODS OF REDUCING DECLINE IN VITAL CAPACITY” (Cytokinetics, Inc., priority 2014, published 2017).
# Test system: patients with ALS
# Assay: BENEFIT-ALS clinical trial: treatment-emergent adverse events, discontinuations, deaths
# Format: in vivo, human
# Description: BENEFIT-ALS was a multi-national, randomized, stratified, double-blind, placebo-controlled, parallel-group study of tirasemtiv in patients with ALS. The study consisted of a screening period, an open-label/lead-in period, and a double-blind treatment period. Following screening, eligible patients received open-label tirasemtiv, 125 mg BID, for 7 days. Patients who tolerated the 7-day lead-in period were randomized in a 1:1 ratio to tirasemtiv or placebo. Over the first 3 weeks of double-blind treatment, patients randomized to tirasemtiv had their TDD up-titrated as follows: 250 mg for 7 days, then 375 mg for 7 days, then 500 mg for 7 days. […] However, in such cases, dose escalation was re-attempted at least one additional time. The highest tolerable tirasemtiv dose for each individual patient was the dose that patient received for the remaining 9 weeks (i.e., the maximum tolerated dose [MTD] phase) of the study. Patients randomized to placebo underwent a corresponding dummy dose titration.
# A total of 711 patients were enrolled in the study and began treatment with open-label tirasemtiv 125 mg BID. After the one-week open-label phase, 302 patients were randomized to placebo and 303 to tirasemtiv. Of these randomized patients, 269 in the placebo group and 204 in the tirasemtiv group completed the study, while 33 on placebo and 99 on tirasemtiv prematurely discontinued study drug, primarily due to AEs (12 patients on placebo 78 patients on tirasemtiv) and patient withdrawal of consent (7 placebo, 12 tirasemtiv).
# Safety data presented were based on the safety analysis set, defined as all patients who received at least 1 dose of double-blind study drug. Of the 605 randomized patients, 596 (295 placebo, 301 tirasemtiv) received at least 1 dose of double-blind study drug and were included in the safety analysis set. Data for the primary and secondary efficacy endpoints were analyzed with the Modified FAS. This analysis set included all patients who received at least 1 dose of double-blind study drug and had at least 1 efficacy assessment during the double-blind treatment period, and excluded 156 patients who were randomized in blocks containing patients affected by a study drug assignment error in which 58 patients randomized to and treated with double-blind tirasemtiv were dispensed double-blind placebo instead. Based on these criteria, the Modified FAS consisted of 388 patients (210 placebo, 178 tirasemtiv).
# An overview of treatment-emergent AEs during the double-blind phase of the study is provided in Table 4, and commonly reported AEs during the double-blind phase are summarized in Table 5. Serious AEs during the double-blind phase of the study were reported for 16 patients (5.4%) in the placebo group and 27 patients (9.0%) in the tirasemtiv group. By the Medical Dictionary for Regulatory […] (MedDRA) system organ class, the most commonly reported SAEs involved respiratory, thoracic and mediastinal disorders (2.0% placebo, 1.3% tirasemtiv). By MedDRA preferred term, AEs that were reported for more than 1 patient included the following: dysphagia (0.3% placebo, 0.7% tirasemtiv), pneumonia (0.3% placebo, 0.7% tirasemtiv), confusional state (0% placebo, 0.7% tirasemtiv), delirium (0% placebo, 0.7% tirasemtiv), and respiratory failure (1.0% placebo, […]).
# [1] = double-blind phase, N=301, MedDRA preferred term
# [2] = double-blind phase, N=301, NCI CTCAE
# [3] = double-blind phase, N=301, listed as tirasemtiv
# [4] = double-blind phase, reported for more than 1 patient
smiles,measurement,setting,value
"C#Cc1cnc2nc(O)n(C(CC)CC)c2n1 [Tirasemtiv, 6-ethynyl-1-(pentan-3-yl)-1H-imidazo[4,5-b]pyrazin-2(3H)one]",Patients who terminated treatment during the first 4 weeks of the double-blind phase,71/97 of early terminations,73.2%
same,Confusional state leading to early discontinuation,double-blind phase,5.0%
same,Dizziness leading to early discontinuation,double-blind phase,9.3%
same,Fatigue leading to early discontinuation,double-blind phase,5.0%
same,"Gastrointestinal (GI) AEs, % of patients",double-blind phase,43.5%
same,"Gastrointestinal (GI) AEs, No. of patients",double-blind phase,131
same,"SAEs: respiratory, thoracic and mediastinal disorders (MedDRA system organ class)",double-blind phase,1.3%
same,% of patients with AE leading to early termination,"double-blind phase, N=301",(25.9%)
same,% of patients with SAE,"double-blind phase, N=301",(9.0%)
same,"Deaths, % of patients","double-blind phase, N=301",(0.7%)
same,"Deaths, No. of patients","double-blind phase, N=301",2
same,No. of patients with AE leading to early termination,"double-blind phase, N=301",78
same,No. of patients with SAE,"double-blind phase, N=301",27
same,AE Asthenia,[1],15.9%
same,AE Confusional state,[1],11.0%
same,AE Constipation,[1],6.3%
same,AE Contusion,[1],7.3%
same,AE Decreased appetite,[1],10.0%
same,AE Diarrhea,[1],7.3%
same,AE Dizziness,[1],50.8%
same,AE Fatigue,[1],33.2%
same,AE Headache,[1],17.9%
same,AE Insomnia,[1],10.3%
same,AE Muscle spasms,[1],15.0%
same,AE Muscular weakness,[1],11.3%
same,AE Nasopharyngitis,[1],6.3%
same,AE Nausea,[1],21.9%
same,AE Respiratory failure,[1],6.3%
same,AE Somnolence,[1],13.0%
same,% of patients with Grade 3 AE,[2],(20.3%)
same,% of patients with Grade 4 AE,[2],(3.0%)
same,% of patients with Grade 5 AE,[2],(0.7%)
same,No. of patients with Grade 3 AE,[2],61
same,No. of patients with Grade 4 AE,[2],9
same,No. of patients with Grade 5 AE,[2],2
same,% of patients with SAE,[3],9.0%
same,"Deaths, % of patients",[3],0.7%
same,Serious AE confusional state,[4],0.7%
same,Serious AE delirium,[4],0.7%
same,Serious AE dysphagia,[4],0.7%
same,Serious AE pneumonia,[4],0.7%
same,Serious AE respiratory failure,[4],0.5%
same,No. of patients with any treatment-emergent AE,"double-blind phase, safety set N=301",291
same,Patients who prematurely discontinued study drug,of 303 randomized to tirasemtiv,99
